Assay results reported in patent publication USRE38046E1, “Enhancement of the cellular immune response” (Biomira, Inc., priority 1986, dated 2003).

Tests used:
DTH effector cells = test: Local transfer of DTH: antigen-primed spleen/T cells co-injected with triggering antigen into foot pad, net DTH swelling; assay type: in vivo, mice
TA3Ha cells = test: Priming with antigen, challenge 2-3 days later with live TA3Ha cells, survival; assay type: in vivo, mice
Source text: Groups of five mice at a time were primed with specific doses of T-alpha (TF) (Ta), T-beta (Tb) (asialo-GM1 disaccharide) and Tn S-Tags. After 2-3 days, they were challenged with 3×10^3 live TA3Ha cells.
Groups of five mice were primed with specific doses of epi. After 2-3 days they were challenged with 3′10^3 live TA3Ha cells.

Epiglycanin
DTH reaction (DTH effector cells; cells primed with the priming Ag, triggering Ag Fuc): not to those carbohydrate determinants which are not represented on epiglycanin
DTH reaction (DTH effector cells; cells primed with the priming Ag, triggering Ag Ta, listed as epi): reaction was with the T alpha, T beta and Tn determinants
DTH reaction (DTH effector cells; cells primed with the priming Ag, triggering Ag Tb, listed as epi): reaction was with the T alpha, T beta and Tn determinants
DTH reaction (DTH effector cells; cells primed with the priming Ag, triggering Ag Tn, listed as epi): reaction was with the T alpha, T beta and Tn determinants
DTH reaction (DTH effector cells; triggering antigen Epi-M (epi linked to SEPHAROSE microspheres)): induced a specific DTH response
DTH reaction (DTH effector cells; triggering antigen irradiated TA3Ha cells): induced a specific DTH response
In Vivo Protection: Number of animals alive at 4 weeks (TA3Ha cells; Dose of Ag 0.1 ug): 1/20
In Vivo Protection: Number of animals alive at 4 weeks (TA3Ha cells; Dose of Ag 0.5 ug): 5/20
In Vivo Protection: Number of animals alive at 4 weeks (TA3Ha cells; Dose of Ag 1.0 ug): 8/20
In Vivo Protection: Number of animals alive at 4 weeks (TA3Ha cells; Dose of Ag 5.0 ug): 8/15
In Vivo Protection: Number of animals alive at 4 weeks (TA3Ha cells; Dose of Ag 10.0 ug): 7/20
No. alive (at d. 9) (TA3Ha cells; priming dose 0.2 ug): 2/5
Survival ave. (TA3Ha cells; priming dose 0.2 ug): 33.8 days
No. alive (at d. 9) (TA3Ha cells; priming dose 1 ug): 4/5
Survival ave. (TA3Ha cells; priming dose 1 ug): 44.2 days
No. alive (at d. 9) (TA3Ha cells; priming dose 2 ug): 4/5
Survival ave. (TA3Ha cells; priming dose 2 ug): 25.2 days
No. alive (at d. 9) (TA3Ha cells; priming dose 10 ug): 0/4
Survival ave. (TA3Ha cells; priming dose 10 ug): 22.3 days
No. alive (at d. 9) (TA3Ha cells; priming dose 20 ug): 1/5
Survival ave. (TA3Ha cells; priming dose 20 ug): 29.0 days
No. alive (at d. 9) (TA3Ha cells; priming dose 100 ug): 1/5
Survival ave. (TA3Ha cells; priming dose 100 ug): 25.5 days
protection against TA3Ha tumor cells (TA3Ha cells; summary of Table 3): did provide protection
